The source made the active and inactive calls. The rule behind the calls is not given here.
What was measured:
[1] = molecular target: Acetylcholinesterase (Homo sapiens, UniProt P22303); assay: Inhibition of AChE (unknown origin) using acetylthiocholine iodide as substrate by Ellman's method
[2] = tested on: Mus musculus; assay: Neuroprotective activity in Swiss albino mouse model of STZ-induced cognition deficit assessed as reduction in Abeta42 deposition level in brain at 3.2 mg/kg, po administrated for 15 days by ELISA; type: functional, organism-based
[3] = tested on: Mus musculus; assay: Cognitive enhancing effect in Swiss albino mouse model of STZ-induced cognition deficit assessed as increase in spontaneous alteration at 3.2 mg/kg, po administrated for 15 days and measured for 8 mins by Y-maze test; type: functional, organism-based
[4] = tested on: Mus musculus; assay: Cognitive enhancing effect in Swiss albino mouse model of STZ-induced cognition deficit assessed as reduction in escape latency time to find removed platform position at 3.2 mg/kg, po administrated for 15 days and measured for 4 days by Morris water maze test; type: functional, organism-based
[5] = tested on: Mus musculus; assay: Memory enhancement effect in Swiss albino mouse model of STZ-induced cognition deficit assessed as increase in exploratory preference at 3.2 mg/kg, po administrated for 15 days and measured for 5 mins by novel object recognition test; type: functional, organism-based
[6] = tested on: Mus musculus; assay: Cognitive enhancing effect in Swiss albino mouse model of STZ-induced cognition deficit assessed as increase in time spent in target quadrant at 3.2 mg/kg, po administrated for 15 days and measured at 5th day of training session for 60 secs by Morris water maze test; type: functional, organism-based
[7] = tested on: Mus musculus; assay: Cognitive enhancing effect in Swiss albino mouse model of STZ-induced cognition deficit assessed as reduction in escape latency time to find removed platform position at 3.7 mg/kg, po administrated for 15 days and measured for 4 days by Morris water maze test; type: functional, organism-based
[8] = tested on: Mus musculus; assay: Cognitive enhancing effect in Swiss albino mouse model of STZ-induced cognition deficit assessed as increase in time spent in target quadrant at 3.7 mg/kg, po administrated for 15 days and measured at 5th day of training session for 60 secs by Morris water maze test; type: functional, organism-based
[9] = tested on: Mus musculus; assay: Cognitive enhancing effect in Swiss albino mouse model of STZ-induced cognition deficit assessed as increase in spontaneous alteration at 3.7 mg/kg, po administrated for 15 days and measured for 8 mins by Y-maze test; type: functional, organism-based
[10] = tested on: Mus musculus; assay: Neuroprotective activity in Swiss albino mouse model of STZ-induced cognition deficit assessed as reduction in Abeta42 deposition level in brain at 3.7 mg/kg, po administrated for 15 days by ELISA; type: functional, organism-based
[11] = tested on: Mus musculus; assay: Memory enhancement effect in Swiss albino mouse model of STZ-induced cognition deficit assessed as increase in exploratory preference at 3.7 mg/kg, po administrated for 15 days and measured for 5 mins by novel object recognition test; type: functional, organism-based
[12] = tested on: Mus musculus; assay: Cognitive enhancing effect in Swiss albino mouse model of STZ-induced cognition deficit assessed as increase in spontaneous alteration at 2.5 mg/kg, po administrated for 15 days and measured for 8 mins by Y-maze test; type: functional, organism-based
[13] = tested on: Mus musculus; assay: Cognitive enhancing effect in Swiss albino mouse model of STZ-induced cognition deficit assessed as reduction in escape latency time to find removed platform position at 2.5 mg/kg, po administrated for 15 days and measured for 4 days by Morris water maze test; type: functional, organism-based
[14] = tested on: Mus musculus; assay: Neuroprotective activity in Swiss albino mouse model of STZ-induced cognition deficit assessed as reduction in Abeta42 deposition level in brain at 2.5 mg/kg, po administrated for 15 days by ELISA; type: functional, organism-based
[15] = tested on: Mus musculus; assay: Cognitive enhancing effect in Swiss albino mouse model of STZ-induced cognition deficit assessed as increase in time spent in target quadrant at 2.5 mg/kg, po administrated for 15 days and measured at 5th day of training session for 60 secs by Morris water maze test; type: functional, organism-based
[16] = tested on: Mus musculus; assay: Memory enhancement effect in Swiss albino mouse model of STZ-induced cognition deficit assessed as increase in exploratory preference at 2.5 mg/kg, po administrated for 15 days and measured for 5 mins by novel object recognition test; type: functional, organism-based

Sequence of Acetylcholinesterase (P22303 whole entry): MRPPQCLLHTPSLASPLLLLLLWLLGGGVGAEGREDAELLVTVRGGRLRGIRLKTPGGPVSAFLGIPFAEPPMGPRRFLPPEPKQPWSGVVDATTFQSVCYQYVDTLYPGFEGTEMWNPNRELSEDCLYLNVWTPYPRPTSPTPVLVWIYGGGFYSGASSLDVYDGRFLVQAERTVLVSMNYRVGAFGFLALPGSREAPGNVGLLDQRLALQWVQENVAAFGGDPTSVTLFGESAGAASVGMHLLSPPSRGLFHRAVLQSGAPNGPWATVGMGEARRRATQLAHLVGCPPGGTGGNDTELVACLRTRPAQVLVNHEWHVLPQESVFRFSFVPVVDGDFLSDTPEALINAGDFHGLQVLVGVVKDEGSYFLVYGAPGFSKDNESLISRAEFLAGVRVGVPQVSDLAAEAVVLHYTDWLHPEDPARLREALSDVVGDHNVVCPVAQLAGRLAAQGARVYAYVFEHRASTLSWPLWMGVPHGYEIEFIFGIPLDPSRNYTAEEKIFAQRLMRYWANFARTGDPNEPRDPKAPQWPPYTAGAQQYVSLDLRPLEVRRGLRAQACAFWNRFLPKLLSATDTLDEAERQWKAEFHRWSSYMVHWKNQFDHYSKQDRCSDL

| SMILES | IC50 [1] [nM] | also measured |
| --- | --- | --- |
| COc1ccc(NCC(=O)Nc2ccc3oc(=O)ccc3c2)cc1 | 55.2 | – |
| COc1ccc(C(=O)CNc2ccc3oc(=O)ccc3c2)cc1 | 55 | Activity [2]: Active; Activity [3]: Active; Activity [4]: Active; Activity [5]: Active; Activity [6]: Active |
| O=C1N/C(=N\c2ccc3oc(=O)ccc3c2)S/C1=C/c1ccc(Cl)cc1 | 173 | – |
| CSc1ccc(/C=C2/S/C(=N/c3ccc4oc(=O)ccc4c3)NC2=O)cc1 | 151 | – |
| O=C1CSC(c2ccc(F)cc2)N1c1ccc2oc(=O)ccc2c1 (stereo not drawn) | 102 | – |
| CSc1ccc(C2SCC(=O)N2c2ccc3oc(=O)ccc3c2)cc1 (stereo not drawn) | 311 | – |
| O=C(CNc1ccc2oc(=O)ccc2c1)c1ccccc1 | 148 | – |
| O=C(CNc1ccc(F)cc1)Nc1ccc2oc(=O)ccc2c1 | 62 | – |
| COc1ccc(/C=C2/S/C(=N/c3ccc4oc(=O)ccc4c3)NC2=O)cc1 | 49.8 | – |
| O=c1ccc2cc(/N=C/c3ccc(Cl)cc3)ccc2o1 | 78.9 | – |
| O=c1ccc2cc(/N=C/c3ccc(Br)cc3)ccc2o1 | 56.9 | – |
| CN(C)c1ccc(/C=C2/S/C(=N/c3ccc4oc(=O)ccc4c3)NC2=O)cc1 | 84 | – |
| O=C(CNc1ccc2oc(=O)ccc2c1)N1CCN(c2ccccc2)CC1 | 80 | – |
| O=C1N/C(=N\c2ccc3oc(=O)ccc3c2)S/C1=C/c1ccc(F)cc1 | 216 | – |
| O=c1ccc2cc(/N=C/c3ccc(F)cc3)ccc2o1 | 226 | – |
| O=c1ccc2cc(/N=C/c3ccccc3)ccc2o1 | 114 | – |
| COc1ccc(/C=N/c2ccc3oc(=O)ccc3c2)cc1 | 135 | – |
| O=C(CNc1ccc2oc(=O)ccc2c1)N1CCOCC1 | 37 | Activity [7]: Active; Activity [8]: Active; Activity [9]: Active; Activity [10]: Active; Activity [11]: Active |
| COc1ccc(C2SCC(=O)N2c2ccc3oc(=O)ccc3c2)cc1 (stereo not drawn) | 71.1 | – |
| CN(C)c1ccc(/C=N/c2ccc3oc(=O)ccc3c2)cc1 | 41 | Activity [12]: Active; Activity [13]: Active; Activity [14]: Active; Activity [15]: Active; Activity [16]: Active |
| O=C1N/C(=N\c2ccc3oc(=O)ccc3c2)S/C1=C/c1ccc(Br)cc1 | 276 | – |
| O=C1N/C(=N\c2ccc3oc(=O)ccc3c2)S/C1=C/c1ccccc1 | 94.1 | – |
| CSc1ccc(/C=N/c2ccc3oc(=O)ccc3c2)cc1 | 172 | – |
